Measurements as given in ChEMBL document CHEMBL4800722, “Data for DCP probe BI 605906” (2021).

Columns and labels:
[1] = target: Calcium/calmodulin-dependent protein kinase type II subunit alpha (Homo sapiens) (UniProt Q9UQM7); settings: Compound concentration 1.0 uM
[2] = target: 5-hydroxytryptamine receptor 7 (Homo sapiens) (UniProt P34969); settings: Compound concentration 10.0 uM
[3] = target: Casein kinase I (Homo sapiens) (UniProt Q9HCP0+P78368+P48730+P49674+P48729); assay: CK1 DUNDEE kinase screen (BI); assay type: protein assay; settings: Rattus norvegicus; Compound concentration 10.0 uM
[4] = target: Urotensin-2 receptor (Homo sapiens) (UniProt Q9UKP6); assay: UROTENSIN_II Eurofins SafetyScreen44 (BI); settings: Compound concentration 10.0 uM
[5] = system: PI3-kinase p110-alpha/p85-alpha (Homo sapiens), P27986+P42336 [E545K]; settings: Compound concentration 1.0 uM
[6] = target: D(1A) dopamine receptor (Homo sapiens) (UniProt P21728); settings: Compound concentration 10.0 uM
[7] = target: Serine/threonine-protein kinase D1 (Homo sapiens) (UniProt Q15139); assay: PRKD1 Invitrogen Lab (UK) kinase screen (BI); settings: Compound concentration 1.0 uM
[8] = target: AP2-associated protein kinase 1 (Homo sapiens, UniProt Q2M2I8); assay: Dose response measurement (AAK1)
[9] = target: Dual specificity tyrosine-phosphorylation-regulated kinase 1A (Homo sapiens) (UniProt Q13627); assay: DYRK1A DUNDEE kinase screen (BI); settings: Rattus norvegicus; Compound concentration 10.0 uM
[10] = GPCRScan assay: inhibition of GABA/PBR; parameters: species or system Rattus norvegicus; radioligand conc. used [nm] 0.3 – 2.0, parental cells brain tissue
[11] = target: Mitogen-activated protein kinase 10 (Homo sapiens) (UniProt P53779); settings: Compound concentration 1.0 uM
[12] = target: T1, Interleukin-1 receptor-associated kinase 3 (Homo sapiens) (UniProt Q9Y616)
T1 sequence (whole entry): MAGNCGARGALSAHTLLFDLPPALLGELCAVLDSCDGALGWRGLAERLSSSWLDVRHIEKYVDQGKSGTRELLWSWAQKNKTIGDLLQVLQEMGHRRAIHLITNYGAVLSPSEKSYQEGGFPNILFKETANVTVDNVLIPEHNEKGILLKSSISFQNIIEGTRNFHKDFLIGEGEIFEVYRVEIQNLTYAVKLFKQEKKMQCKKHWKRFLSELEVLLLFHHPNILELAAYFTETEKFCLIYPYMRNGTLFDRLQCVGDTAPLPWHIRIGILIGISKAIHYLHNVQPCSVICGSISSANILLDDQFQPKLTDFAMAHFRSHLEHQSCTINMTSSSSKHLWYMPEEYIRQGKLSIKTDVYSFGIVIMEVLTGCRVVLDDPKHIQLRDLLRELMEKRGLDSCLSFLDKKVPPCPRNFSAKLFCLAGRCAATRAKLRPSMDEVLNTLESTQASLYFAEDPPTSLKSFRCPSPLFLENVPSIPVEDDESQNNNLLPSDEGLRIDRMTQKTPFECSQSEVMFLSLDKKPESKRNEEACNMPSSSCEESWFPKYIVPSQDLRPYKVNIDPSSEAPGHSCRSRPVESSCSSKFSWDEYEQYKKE

[13] = target: Mast/stem cell growth factor receptor Kit (Homo sapiens) (UniProt P10721)
[14] = target: Calcium/calmodulin-dependent protein kinase type II subunit delta (Homo sapiens) (UniProt Q13557); settings: Compound concentration 1.0 uM
[15] = target: Aurora kinase B (Homo sapiens) (UniProt Q96GD4); assay: AURORA B DUNDEE kinase screen (BI); settings: Compound concentration 10.0 uM
[16] = target: Tyrosine-protein kinase ABL1 (Homo sapiens) (UniProt P00519)
[17] = target: Tyrosine-protein kinase CSK (Homo sapiens) (UniProt P41240)
[18] = target: GABA-A receptor; anion channel (Rattus norvegicus) (UniProt O09028+P15431+P18506+P18508+P19969+P20236+P23574+P23576+P28471+P28473+P30191+P62813+P63079+P63138+Q91ZM7+Q9ES14); settings: Compound concentration 10.0 uM
[19] = target: G protein-coupled receptor kinase 6 (Homo sapiens) (UniProt P43250); settings: Compound concentration 1.0 uM
[20] = target: Maternal embryonic leucine zipper kinase (Homo sapiens) (UniProt Q14680); assay: MELK Invitrogen Lab (UK) kinase screen (BI); settings: Compound concentration 1.0 uM
[21] = target: Mitogen-activated protein kinase 15 (Homo sapiens) (UniProt Q8TD08); assay: MAPK15 (ERK7) Invitrogen Lab (UK) kinase screen (BI); settings: Compound concentration 1.0 uM
[22] = target: Phosphatidylinositol 3-kinase catalytic subunit type 3 (Homo sapiens) (UniProt Q8NEB9); settings: Compound concentration 1.0 uM
[23] = target: Glycogen synthase kinase-3 beta (Homo sapiens) (UniProt P49841)
[24] = target: RAF proto-oncogene serine/threonine-protein kinase (Homo sapiens) (UniProt P04049); assay: RAF1 Invitrogen Lab (UK) kinase screen (BI); settings: Compound concentration 1.0 uM
[25] = target: BDNF/NT-3 growth factors receptor (Homo sapiens) (UniProt Q16620); settings: Compound concentration 1.0 uM
[26] = target: Sodium-dependent serotonin transporter (Homo sapiens) (UniProt P31645); settings: Compound concentration 10.0 uM
[27] = target: Serine/threonine-protein kinase TAO1 (Homo sapiens) (UniProt Q7L7X3); assay: TAOK1 Invitrogen Lab (UK) kinase screen (BI); settings: Compound concentration 1.0 uM
[28] = target: Serine/threonine-protein kinase PAK 1 (Homo sapiens) (UniProt Q13153); settings: Compound concentration 1.0 uM
[29] = target: Serine/threonine-protein kinase BRSK2 (Homo sapiens) (UniProt Q8IWQ3); assay: BRSK2 Invitrogen Lab (UK) kinase screen (BI); settings: Compound concentration 1.0 uM
[30] = target: Thromboxane-A synthase (Homo sapiens) (UniProt P24557); assay: THRO SYN(HU) Eurofins SafetyScreen44 (BI); settings: Compound concentration 10.0 uM
[31] = target: Muscarinic acetylcholine receptor M1 (Homo sapiens) (UniProt P11229); settings: Compound concentration 10.0 uM
[32] = target: Discoidin domain-containing receptor 2 (Homo sapiens) (UniProt Q16832); settings: Compound concentration 1.0 uM
[33] = target: Adrenergic receptor beta (Rattus norvegicus) (UniProt P18090+P10608+P26255)

Sequence of Mast/stem cell growth factor receptor Kit (Homo sapiens) (P10721 whole entry): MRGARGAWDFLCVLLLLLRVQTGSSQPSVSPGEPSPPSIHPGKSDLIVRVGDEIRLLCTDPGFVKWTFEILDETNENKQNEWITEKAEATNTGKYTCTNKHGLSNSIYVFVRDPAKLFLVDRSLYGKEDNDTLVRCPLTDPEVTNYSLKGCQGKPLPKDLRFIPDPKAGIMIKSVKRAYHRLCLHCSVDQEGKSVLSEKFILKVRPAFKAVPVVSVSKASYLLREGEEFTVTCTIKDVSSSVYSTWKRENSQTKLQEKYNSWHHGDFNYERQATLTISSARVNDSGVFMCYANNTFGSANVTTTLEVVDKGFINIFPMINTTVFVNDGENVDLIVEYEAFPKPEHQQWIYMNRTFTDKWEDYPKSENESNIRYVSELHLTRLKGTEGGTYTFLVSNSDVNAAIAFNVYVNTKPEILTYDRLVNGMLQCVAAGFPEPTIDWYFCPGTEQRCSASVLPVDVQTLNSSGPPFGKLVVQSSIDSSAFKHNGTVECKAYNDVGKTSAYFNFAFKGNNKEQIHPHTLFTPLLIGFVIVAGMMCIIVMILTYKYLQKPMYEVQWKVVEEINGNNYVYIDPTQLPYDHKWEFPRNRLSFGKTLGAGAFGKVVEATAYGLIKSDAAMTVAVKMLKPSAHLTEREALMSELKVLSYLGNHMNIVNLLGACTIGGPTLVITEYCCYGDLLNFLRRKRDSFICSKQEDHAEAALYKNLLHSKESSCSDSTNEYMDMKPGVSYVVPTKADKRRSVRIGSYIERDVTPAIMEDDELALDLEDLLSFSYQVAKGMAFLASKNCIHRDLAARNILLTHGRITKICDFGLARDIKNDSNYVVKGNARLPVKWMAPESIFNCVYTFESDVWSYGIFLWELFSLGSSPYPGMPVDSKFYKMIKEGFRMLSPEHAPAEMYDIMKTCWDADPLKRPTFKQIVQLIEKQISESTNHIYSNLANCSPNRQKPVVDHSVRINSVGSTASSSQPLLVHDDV
Sequence of Tyrosine-protein kinase CSK (Homo sapiens) (P41240 2-450 limits assumed): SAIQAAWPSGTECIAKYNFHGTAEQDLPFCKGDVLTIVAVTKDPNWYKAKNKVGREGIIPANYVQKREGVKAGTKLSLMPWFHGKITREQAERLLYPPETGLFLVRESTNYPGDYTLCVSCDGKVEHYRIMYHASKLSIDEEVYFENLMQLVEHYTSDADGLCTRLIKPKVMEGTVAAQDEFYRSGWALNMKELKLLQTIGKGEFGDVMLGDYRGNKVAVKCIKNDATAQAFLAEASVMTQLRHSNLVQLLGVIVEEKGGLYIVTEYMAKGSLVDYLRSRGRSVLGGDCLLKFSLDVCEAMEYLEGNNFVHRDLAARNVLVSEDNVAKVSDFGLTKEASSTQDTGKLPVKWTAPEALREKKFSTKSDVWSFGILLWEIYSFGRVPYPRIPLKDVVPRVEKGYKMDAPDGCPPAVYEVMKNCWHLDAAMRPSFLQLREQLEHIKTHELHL
Sequence of Glycogen synthase kinase-3 beta (Homo sapiens) (P49841 whole entry, looked up): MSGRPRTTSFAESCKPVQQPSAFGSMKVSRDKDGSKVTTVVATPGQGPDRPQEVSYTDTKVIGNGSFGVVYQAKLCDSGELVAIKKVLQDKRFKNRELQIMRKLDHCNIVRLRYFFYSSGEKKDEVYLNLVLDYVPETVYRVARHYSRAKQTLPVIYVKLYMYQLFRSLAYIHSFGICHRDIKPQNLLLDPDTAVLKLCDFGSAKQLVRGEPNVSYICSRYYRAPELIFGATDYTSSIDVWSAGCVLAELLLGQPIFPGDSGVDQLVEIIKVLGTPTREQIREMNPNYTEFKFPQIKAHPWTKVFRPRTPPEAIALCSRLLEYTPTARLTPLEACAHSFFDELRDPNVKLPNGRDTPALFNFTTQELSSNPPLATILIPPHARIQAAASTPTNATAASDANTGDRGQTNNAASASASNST
Sequence of Tyrosine-protein kinase ABL1 (Homo sapiens) (P00519 whole entry): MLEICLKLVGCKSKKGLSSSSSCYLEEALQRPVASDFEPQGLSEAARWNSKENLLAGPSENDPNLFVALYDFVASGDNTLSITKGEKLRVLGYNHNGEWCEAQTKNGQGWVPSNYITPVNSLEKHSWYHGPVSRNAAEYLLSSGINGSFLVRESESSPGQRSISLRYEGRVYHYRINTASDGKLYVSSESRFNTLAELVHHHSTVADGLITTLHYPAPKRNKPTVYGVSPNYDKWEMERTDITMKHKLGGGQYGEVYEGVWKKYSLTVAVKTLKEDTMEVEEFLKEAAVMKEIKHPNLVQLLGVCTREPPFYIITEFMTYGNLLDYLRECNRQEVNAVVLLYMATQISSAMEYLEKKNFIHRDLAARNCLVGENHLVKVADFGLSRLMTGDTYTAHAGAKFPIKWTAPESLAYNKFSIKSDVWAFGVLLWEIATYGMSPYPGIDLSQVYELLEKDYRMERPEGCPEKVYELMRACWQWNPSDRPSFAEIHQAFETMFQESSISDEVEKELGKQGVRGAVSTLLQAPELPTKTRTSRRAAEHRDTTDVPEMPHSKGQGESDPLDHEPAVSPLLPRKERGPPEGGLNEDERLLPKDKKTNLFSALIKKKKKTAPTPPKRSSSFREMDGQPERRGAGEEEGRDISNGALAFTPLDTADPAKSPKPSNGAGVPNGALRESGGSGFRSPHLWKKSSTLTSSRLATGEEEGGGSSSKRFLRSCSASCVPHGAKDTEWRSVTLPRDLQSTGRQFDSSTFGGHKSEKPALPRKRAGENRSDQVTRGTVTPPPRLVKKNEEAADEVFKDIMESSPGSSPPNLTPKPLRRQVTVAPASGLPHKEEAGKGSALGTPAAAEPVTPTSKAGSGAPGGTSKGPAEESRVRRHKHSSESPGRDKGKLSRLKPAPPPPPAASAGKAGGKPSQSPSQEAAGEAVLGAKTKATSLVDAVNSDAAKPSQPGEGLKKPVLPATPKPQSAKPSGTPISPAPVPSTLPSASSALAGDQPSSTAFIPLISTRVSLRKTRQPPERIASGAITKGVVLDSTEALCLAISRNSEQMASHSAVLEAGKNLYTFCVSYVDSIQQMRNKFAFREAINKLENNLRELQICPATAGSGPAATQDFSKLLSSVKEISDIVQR
Sequence of Serine/threonine-protein kinase D1 (Homo sapiens) (Q15139 whole entry): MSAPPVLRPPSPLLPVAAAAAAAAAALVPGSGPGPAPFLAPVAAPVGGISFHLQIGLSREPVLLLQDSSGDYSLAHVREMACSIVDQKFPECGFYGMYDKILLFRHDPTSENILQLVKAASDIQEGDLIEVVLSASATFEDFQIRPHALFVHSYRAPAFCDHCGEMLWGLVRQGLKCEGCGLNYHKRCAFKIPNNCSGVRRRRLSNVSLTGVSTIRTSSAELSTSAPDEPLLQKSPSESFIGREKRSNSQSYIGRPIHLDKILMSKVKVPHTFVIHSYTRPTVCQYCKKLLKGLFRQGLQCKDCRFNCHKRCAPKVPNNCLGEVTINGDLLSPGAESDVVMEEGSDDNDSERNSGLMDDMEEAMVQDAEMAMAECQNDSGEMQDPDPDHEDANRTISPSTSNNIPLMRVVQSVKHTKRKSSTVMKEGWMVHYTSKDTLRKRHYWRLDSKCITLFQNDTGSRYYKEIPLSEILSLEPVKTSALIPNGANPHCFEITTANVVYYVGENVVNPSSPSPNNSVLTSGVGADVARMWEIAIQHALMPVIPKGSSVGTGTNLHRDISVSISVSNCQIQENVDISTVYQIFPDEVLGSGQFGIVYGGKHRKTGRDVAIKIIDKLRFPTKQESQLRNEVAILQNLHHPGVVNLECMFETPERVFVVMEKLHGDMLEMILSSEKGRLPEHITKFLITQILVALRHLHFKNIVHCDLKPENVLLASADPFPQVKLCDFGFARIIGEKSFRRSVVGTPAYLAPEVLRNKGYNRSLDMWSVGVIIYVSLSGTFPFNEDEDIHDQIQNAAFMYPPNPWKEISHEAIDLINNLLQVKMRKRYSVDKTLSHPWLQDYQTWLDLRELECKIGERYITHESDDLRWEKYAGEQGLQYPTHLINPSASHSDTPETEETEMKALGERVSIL
Sequence of Urotensin-2 receptor (Homo sapiens) (Q9UKP6 whole entry): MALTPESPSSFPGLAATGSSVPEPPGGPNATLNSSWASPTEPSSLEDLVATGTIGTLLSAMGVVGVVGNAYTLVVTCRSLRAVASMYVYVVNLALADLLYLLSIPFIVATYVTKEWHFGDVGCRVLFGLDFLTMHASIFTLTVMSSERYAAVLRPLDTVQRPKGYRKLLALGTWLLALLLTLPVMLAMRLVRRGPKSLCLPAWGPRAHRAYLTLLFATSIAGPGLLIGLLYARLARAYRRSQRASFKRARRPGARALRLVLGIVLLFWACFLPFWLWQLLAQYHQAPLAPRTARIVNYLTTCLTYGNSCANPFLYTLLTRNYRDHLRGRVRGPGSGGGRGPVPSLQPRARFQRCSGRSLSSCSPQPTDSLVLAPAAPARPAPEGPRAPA
Sequence of Muscarinic acetylcholine receptor M1 (Homo sapiens) (P11229 whole entry, the tested form may be a part): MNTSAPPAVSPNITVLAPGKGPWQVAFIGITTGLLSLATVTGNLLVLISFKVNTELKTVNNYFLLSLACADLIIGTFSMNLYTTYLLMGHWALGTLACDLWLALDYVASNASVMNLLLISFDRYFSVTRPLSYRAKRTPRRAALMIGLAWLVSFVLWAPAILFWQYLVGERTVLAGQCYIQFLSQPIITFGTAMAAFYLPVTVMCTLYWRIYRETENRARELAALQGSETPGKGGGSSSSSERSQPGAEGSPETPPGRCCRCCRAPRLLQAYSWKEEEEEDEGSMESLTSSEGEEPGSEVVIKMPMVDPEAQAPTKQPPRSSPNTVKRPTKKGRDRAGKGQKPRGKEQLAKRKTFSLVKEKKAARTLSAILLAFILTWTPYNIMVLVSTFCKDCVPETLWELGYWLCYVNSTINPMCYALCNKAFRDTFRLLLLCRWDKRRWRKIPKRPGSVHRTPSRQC

## CCC(F)(F)c1cc(N2CCC(S(C)(=O)=O)CC2)nc2sc(C(N)=O)c(N)c12 [BI-605906]
[1]
  residual activity: 100%
[2]
  inhibition: 13.7%
[3]
  residual activity: 68.6%
[4]
  residual activity: 107%
[5]
  residual activity: 100%
[6]
  residual activity: 101%
[7]
  residual activity: 83%
[8]
  IC50: 272 nM
[9]
  residual activity: 74.9%
[10]
  Ki: 2620 nM
  pKi: 5.59
[11]
  residual activity: 101%
[12]; Compound concentration 0.001 uM
  residual activity: 93%
[12]; Compound concentration 1.0 uM
  residual activity: 24%
[12]; Compound concentration 20.0 uM
  residual activity: 14%
[13]; Compound concentration 1.0 uM
  residual activity: 89%
[13]; Compound concentration 10.0 uM
  residual activity: 83%
[14]
  residual activity: 96%
[15]
  residual activity: 60.9%
[16]; Compound concentration 1.0 uM
  residual activity: 95%
[16]; Compound concentration 10.0 uM
  residual activity: 77%
[17]; Compound concentration 1.0 uM
  residual activity: 96%
[17]; Compound concentration 10.0 uM
  residual activity: 84%
[18]
  inhibition: 8.92%
[19]
  residual activity: 93%
[20]
  residual activity: 103%
[21]
  residual activity: 103%
[22]
  residual activity: 91%
[23]; Compound concentration 1.0 uM
  residual activity: 93%
[23]; Compound concentration 10.0 uM
  residual activity: 87%
[24]
  residual activity: 78%
[25]
  residual activity: 95%
[26]
  inhibition: 8.94%
[27]
  residual activity: 88%
[28]
  residual activity: 98%
[29]
  residual activity: 102%
[30]
  residual activity: 86%
[31]
  inhibition: 8.33%
[32]
  residual activity: 99%
[33]; Compound concentration 10.0 uM
  residual activity: 86%
[33]; Compound concentration 100.0 uM
  residual activity: 94%
